Assay results taken from patent publication US12415771B2, “Compounds for the treatment of neuromuscular disorders” (NMD PHARMA A/S, priority 2019, dated 2025).
Like-named read-outs stand apart in the source and are kept apart here.

Assays:
CIC-1 ion channel = target: T1, CIC-1 ion channel (Rattus norvegicus, UniProt P35524); assay: Electrophysiological measurement (Gm, three micro-electrode technique) of compound inhibition of CIC-1 in rat soleus muscle fibres; type: cell-based; details: whole rat soleus muscle, Gm at four increasing concentrations, approx. 30° C., mean ± spread
T1 construct: from tissue; host or cells: intact soleus muscle of 12-14 week old Wistar rats
T1 sequence (P35524 1-994): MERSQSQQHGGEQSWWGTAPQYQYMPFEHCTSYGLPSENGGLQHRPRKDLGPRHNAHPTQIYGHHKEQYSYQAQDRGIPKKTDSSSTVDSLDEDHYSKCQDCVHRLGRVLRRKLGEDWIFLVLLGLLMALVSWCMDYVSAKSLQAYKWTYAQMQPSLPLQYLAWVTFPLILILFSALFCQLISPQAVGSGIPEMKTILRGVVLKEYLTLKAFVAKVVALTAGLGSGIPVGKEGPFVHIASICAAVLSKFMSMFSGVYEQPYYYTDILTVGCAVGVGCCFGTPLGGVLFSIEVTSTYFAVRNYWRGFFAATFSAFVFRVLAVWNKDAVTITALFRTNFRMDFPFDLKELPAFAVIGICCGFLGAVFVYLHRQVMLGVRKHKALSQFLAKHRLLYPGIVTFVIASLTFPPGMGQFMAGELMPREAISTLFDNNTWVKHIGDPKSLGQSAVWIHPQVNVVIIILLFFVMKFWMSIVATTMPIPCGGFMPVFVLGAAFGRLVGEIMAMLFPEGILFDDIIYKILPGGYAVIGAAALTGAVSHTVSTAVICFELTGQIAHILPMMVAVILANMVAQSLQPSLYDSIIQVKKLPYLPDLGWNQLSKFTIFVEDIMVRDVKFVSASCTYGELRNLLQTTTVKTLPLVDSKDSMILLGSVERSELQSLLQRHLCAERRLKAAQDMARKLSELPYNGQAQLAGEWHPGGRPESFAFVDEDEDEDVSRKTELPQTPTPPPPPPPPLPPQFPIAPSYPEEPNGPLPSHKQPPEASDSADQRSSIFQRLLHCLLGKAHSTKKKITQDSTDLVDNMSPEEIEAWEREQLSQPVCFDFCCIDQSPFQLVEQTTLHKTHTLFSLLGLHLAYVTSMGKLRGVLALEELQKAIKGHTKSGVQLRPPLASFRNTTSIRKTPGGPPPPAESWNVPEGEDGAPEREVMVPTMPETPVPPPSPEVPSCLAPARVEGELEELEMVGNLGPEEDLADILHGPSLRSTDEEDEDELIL

female Lewis rats = assay: In situ isometric hindlimb force in anaesthetised rats under partial neuromuscular block by Cisatracurium; type: in vivo; details: Rattus norvegicus, iv, 80 Hz stimulation, Cisatracurium block, read-out: increase in tetanic force
Experimental: Isometric hindlimb force was measured in 12-week old female Lewis rats in the presence and absence of compound.
Rats were placed under anesthesia with isoflurane (2-4%), intubated and subsequently connected to a micro ventilator (Microvent 1, Hallowell EMC, US). Two stimulation electrodes were inserted through the skin to stimulate the sciatic nerve. A small incision was made proximal to the ankle, to expose the Achilles tendon, which was tied by cotton string, and connected to a force transducer (Fort250, World Precision Instruments) with adjustable position (Vernier control). The Achilles tendon was then cut distal to the attached cotton string. The rat was placed on a heated pad, and to prevent movement artefacts from contraction of the ankle dorsiflexors, the foot was fixated by tape on a footplate.
Muscle contractile properties were assessed by applying an electrical current (under supramaximal voltage conditions) to the nerve and recording the force generated by the muscle. The muscle was stretched until maximal force was obtained, when assessed by 2 Hz stimulation. Isometric force was measured every 30 seconds at 12 Hz (Twitch), 10 pulses, and at every 5 minutes at 80 Hz (Tetanic) for 1 second (80 pulses). This stimulation pattern was employed throughout the experiment, expect in few cases where 80 Hz stimulation was replaced by 12 Hz (10 pulses). […] When the level of neuromuscular inhibition was stable, the test article was injected i.v. at the chosen concentration. The effect of test article was assessed on its ability to increase force generated from the stimulation pattern applied. The effect was assessed in the ability to increase force per se (tetanic, 80 Hz, stimulation), and the ratio between individual twitch peaks (12 Hz stimulation). The effect was monitored for at least 1 hour after injection of test article. In addition, the time from injection of test article to maximal effect on force (both twitch and tetanic) was noted and the time for the effect to disappear (return to baseline), if possible. When appropriate the infusion of neuromuscular blocking agent was ceased, with the stimulation pattern continued, and the return of force to control levels was monitored. Animals were sacrificed by cervical dislocation while still fully sedated.

[1] = test system: isolated rat soleus muscles; assay: Recovery of nerve-stimulated contractile force in isolated rat soleus nerve-muscle preparation exposed to tubocurarine; details: for activation at 50 µM: 40 min, read-out: Point increase (%) of initial force that was restored
Experimental: Recovery of force is quantified as the percentage of the force prior to tubocurarine that is recovered by the compound.
The current disclosure relates to compounds that inhibit CIC-1 ion channels and increase muscle excitability and thereby improve muscle function in clinical conditions where muscle activation is failing. Such conditions result in loss of contractile function of skeletal muscle, weakness and excessive fatigue. In this series of experiments the compounds were tested for their ability to restore contractile function of isolated rat muscle when the neuromuscular transmission had been compromised akin to neuromuscular disorders.
Experimentally, soleus muscles from 4-5 wk old rats were isolated with the motor nerve remaining attached. The nerve-muscle preparations were mounted in experimental setups that enabled electrical stimulation of the motor nerve. Stimulation of the motor nerve led to activation of the muscle fibres and ensuing force production that was recorded.
After mounting the nerve-muscle preparation in the experimental setup, the contractile function of the muscle was initially assessed under the control conditions (FIG. 2A). […] The experimental condition mimics the failing neuromuscular transmission in a range of neuromuscular disorders. After addition of tubocurarine the contractile force declined over the next 90 mins to 10-50% of the control force. 50 μM of the test compound was then added and the contractile force recovered despite the continued presence of tubocurarine. To quantify the ability of the compound to restore force the percentage of the initial force that was restored was determined after 40 mins of compound exposure (FIG. 2B) and the point increase is reported in Table 3.

[2] = 50 μM test compound, after 40 mins exposure, 115 nM tubocurarine for 90 mins, rat soleus

Row | Compound | EC50 (CIC-1 ion channel) [µM] | activation at 50 µM [1, 2] [%] | other results
1 | C#Cc1ccc(O[C@@H](C)C(=O)O)c(C(F)(F)CC)c1 [Compound A-23, (2S)-2-[2-(1,1-difluoropropyl)-4-ethynylphenoxy]propanoic acid] | 6.1 ± 1.1 | 37 | change in vivo at 18.8 mg/kg (female Lewis rats; 18.8 mg/kg i.v.): 40%
2 | CCC(F)(F)c1cc(Cl)c(F)cc1OCC(=O)O [Compound A-39, 2-[4-chloro-2-(1,1-difluoropropyl)-5-fluorophenoxy]acetic acid] | 7.9 ± 3.1 |  | activation at 50 µM ([1]; Rattus norvegicus): 37%
3 | CC(F)(F)c1cc(Cl)c(Cl)cc1O[C@@H](CF)C(=O)O [Compound A-44, (2R)-2-[4,5-dichloro-2-(1,1-difluoroethyl)phenoxy]-3-fluoropropanoic acid] |  | 24 | 
4 | CC[C@H](Oc1cc(F)c(Cl)cc1C(F)(F)CC)C(=O)O [Compound A-49, (2S)-2-[4-chloro-2-(1,1-difluoropropyl)-5-fluorophenoxy]butanoic acid] |  | 24 | 
5 | CCC(F)(F)c1cc(Br)c(F)cc1O[C@@H](C)C(=O)O [Compound A-24, (2S)-2-[4-bromo-2-(1,1-difluoropropyl)-5-fluorophenoxy]propanoic acid] | 0.9 ± 0.2 |  | 
6 | C[C@H](Oc1ccc(Br)cc1C(C)(F)F)C(=O)O [Compound A-4, (2S)-2-[4-bromo-2-(1,1-difluoroethyl)phenoxy]propanoic acid] |  | 34 | change in vivo at 21.6 mg/kg (female Lewis rats; 21.6 mg/kg i.v.): 34%
7 | C=Cc1cc(C(F)(F)CC)c(O[C@@H](C)C(=O)O)cc1F [Compound A-47, (2S)-2-[2-(1,1-difluoropropyl)-4-ethenyl-5-fluorophenoxy]propanoic acid] |  | 31 | 
8 | CCC(F)(F)c1cc([N+](=O)[O-])ccc1O[C@@H](C)C(=O)O [Compound A-51, (2S)-2-[2-(1,1-difluoropropyl)-4-nitrophenoxy]propanoic acid] |  | 37 | 
9 | CC[C@H](Oc1cc(F)c(Br)cc1C(F)(F)CC)C(=O)O [Compound A-48, (2S)-2-[4-bromo-2-(1,1-difluoropropyl)-5-fluorophenoxy]butanoic acid] | 2 |  | 
10 | C#CC[C@H](Oc1ccc(Br)cc1C(F)(F)CC)C(=O)O [Compound A-18, (2S)-2-[4-bromo-2-(1,1-difluoropropyl)phenoxy]pent-4-ynoic acid] | 4.8 ± 1.1 | 31 | 
11 | CCC(F)(F)c1cc(Br)c(F)cc1O[C@@H](CF)C(=O)O [Compound A-34, (2R)-2-[4-bromo-2-(1,1-difluoropropyl)-5-fluorophenoxy]-3-fluoropropanoic acid] | 1.1 ± 0.2 |  | 
12 | (2S)-2-[4-bromo-2-(1,1-difluoropropyl)phenoxy](2-^2H)propanoic acid [Compound A-21] | 2.6 |  | Point increase (%) of initial force that was restored [1, 2]: 44%
13 | CCC(F)(F)c1cc(Br)ccc1OCC(=O)O [Compound A-6, 2-[4-bromo-2-(1,1-difluoropropyl)phenoxy]acetic acid] | 7.5 ± 2.9 | 35 | 
14 | CC(F)(F)c1cc(Br)ccc1O[C@@H](CF)C(=O)O [Compound A-16, (2R)-2-[4-bromo-2-(1,1-difluoroethyl)phenoxy]-3-fluoropropanoic acid] | 3.2 ± 0.8 |  | change in vivo at 22.9 mg/kg (female Lewis rats; 22.9 mg/kg i.v.): 46%
15 | CCC(F)(F)c1cc(Cl)c(F)cc1O[C@@H](CF)C(=O)O [Compound A-41, (2R)-2-[4-chloro-2-(1,1-difluoropropyl)-5-fluorophenoxy]-3-fluoropropanoic acid] | 1.1 ± 0.4 |  | 
16 | CC(F)(F)c1cc(Br)c(F)cc1O[C@@H](CF)C(=O)O [Compound A-43, (2R)-2-[4-bromo-2-(1,1-difluoroethyl)-5-fluorophenoxy]-3-fluoropropanoic acid] | 2.9 ± 0.9 |  | 
17 | C#CC[C@H](Oc1ccc(Cl)cc1C(C)(F)F)C(=O)O [Compound A-19, (2S)-2-[4-chloro-2-(1,1-difluoroethyl)phenoxy]pent-4-ynoic acid] |  | 27 | 
18 | CCC(F)(F)c1cc(F)c(F)cc1O[C@@H](CF)C(=O)O [Compound A-54, (2R)-2-[2-(1,1-difluoropropyl)-4,5-difluorophenoxy]-3-fluoropropanoic acid] |  | 36 | 
19 | CCC(F)(F)c1cc(I)ccc1O[C@@H](C)C(=O)O [Compound A-20, (2S)-2-[2-(1,1-difluoropropyl)-4-iodophenoxy]propanoic acid] | 1.9 | 44 | 
20 | CCC(F)(F)c1cc(Cl)c(Cl)cc1O[C@@H](C)C(=O)O [Compound A-42, (2S)-2-[4,5-dichloro-2-(1,1-difluoropropyl)phenoxy]propanoic acid] | 2.5 ± 0.3 |  | activation at 50 µM ([1]; Rattus norvegicus): 30%
21 | CCC(F)(F)c1cc(Br)ccc1O[C@@H](CCl)C(=O)O [Compound A-17, (2R)-2-[4-bromo-2-(1,1-difluoropropyl)phenoxy]-3-chloropropanoic acid] |  | 48 | 
22 | (2S)-2-[4-bromo-2-(1,1-difluoropropyl)(3,5,6-^2H3)phenoxy]propanoic acid [Compound A-30] |  |  | Point increase (%) of initial force that was restored [1, 2]: 44%
23 | C=Cc1ccc(O[C@@H](C)C(=O)O)c(C(F)(F)CC)c1 [Compound A-35, (2S)-2-[2-(1,1-difluoropropyl)-4-ethenylphenoxy]propanoic acid] |  | 20 | 
24 | CCC(F)(F)c1cc(Br)ccc1O[C@@H](CF)C(=O)O [Compound A-11, (2R)-2-[4-bromo-2-(1,1-difluoropropyl)phenoxy]-3-fluoropropanoic acid] | 1.6 ± 0.2 |  | change in vivo at 17.6 mg/kg (female Lewis rats; 17.6 mg/kg i.v.): 44%
25 | CC(C)C(F)(F)c1cc(Br)ccc1OCC(=O)O [Compound A-38, 2-[4-bromo-2-(1,1-difluoro-2-methylpropyl)phenoxy]acetic acid] | 7.4 |  | 
